“And” between values parts separate entries of the source, which are not always exact repeats. Identical values can stand only once.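 Where inhibition never reached the appropriate level, the endpoint shown equals the highest concentration tested. Otherwise, values were interpolated linearly from a five-concentration, 48-hour dose response in 96-well plates. Here, GI50 denotes the concentration required for 50% inhibition of growth. TGI is the concentration that stops growth completely.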
Legend:
Experiment in all cases: growth of human tumour cells (NCI), 48 h
SK-MEL-28 melanoma = test system: SK-MEL-28 melanoma
SNB-78 CNS = test system: SNB-78 CNS
XF 498 CNS = test system: XF 498 CNS
DLD-1 colon = test system: DLD-1 colon
NCI-H23 lung = test system: NCI-H23 lung
KM20L2 colon = test system: KM20L2 colon
M19-MEL melanoma = test system: M19-MEL melanoma
DMS 114 small cell lung = test system: DMS 114 small cell lung
A498 renal = test system: A498 renal
BT-549 breast = test system: BT-549 breast
MDA-MB-435 = test system: MDA-MB-435
MDA-MB-231 breast = test system: MDA-MB-231 breast
T-47D breast = test system: T-47D breast

SMILES | TGI (SK-MEL-28 melanoma) | TGI (SNB-78 CNS) [µM] | TGI (XF 498 CNS) [µM] | TGI (DLD-1 colon) [µM] | TGI (NCI-H23 lung) | TGI (KM20L2 colon) [µM] | TGI (M19-MEL melanoma) [µM] | TGI (DMS 114 small cell lung) [µM] | TGI (A498 renal) | GI50 (BT-549 breast) | TGI (BT-549 breast) | GI50 (MDA-MB-435) | TGI (MDA-MB-435) | GI50 (MDA-MB-231 breast) | TGI (MDA-MB-231 breast) | GI50 (SK-MEL-28 melanoma) | GI50 (NCI-H23 lung) | GI50 (A498 renal) | GI50 (T-47D breast) | TGI (T-47D breast)
COc1ccc(Cn2c(C)nc3c2C(=O)c2ccccc2C3=O)cc1 | > 75 µM | > 75 | 27.1 | > 75 | 16.5 µM | > 75 | 16.7 | – | – | – | – | – | – | – | – | – | – | – | – | –
[O-]/[N+](=C\c1ccccc1)[C@H](COCc1ccccc1)c1ccccc1 | > 100 µM | > 100 | > 100 | > 100 | > 100 µM | > 100 | > 100 | > 100 | > 100 µM | – | – | – | – | – | – | – | – | – | – | –
O=C(O)c1ccccc1Cc1ccco1 | – | > 100 | – | > 100 | > 100 µM | > 100 | – | > 100 | > 100 µM | – | – | – | – | – | – | – | – | – | – | –
CCOc1ccc(NC(=O)CC2SC(=Nc3ccc(Cl)cc3)NC2=O)cc1 (centres undefined) | > 100 µM | – | > 100 | > 100 | > 100 µM | > 100 | > 100 | > 100 | > 100 µM | – | – | – | – | – | – | – | – | – | – | –
O=C(O)CN(c1ccccc1)S(=O)(=O)c1ccc(NC(=O)c2ccccc2)cc1 | > 100 µM | – | > 100 | > 100 | > 100 µM | > 100 | > 100 | – | > 100 µM | – | – | – | – | – | – | – | – | – | – | –
O=C(CC1=Nc2nnc(-c3nnc4n3C(=O)C(CC(=O)c3cccnc3)=N4)n2C1=O)c1cccnc1 | > 100 µM | > 100 | – | > 100 | > 100 µM | > 100 | > 100 | > 100 | > 100 µM | – | – | – | – | – | – | – | – | – | – | –
C=CCC1OC(C)(C)Oc2ccc(OCOCCOC)cc21 (centres undefined) | > 100 µM | – | – | – | > 100 µM | – | – | > 100 | > 100 µM | – | – | – | – | – | – | – | – | – | – | –
COc1ccc(S(=O)(=O)NC(C)C(=O)O)cc1 (centres undefined) | > 100 µM | – | 63.4 | > 100 | > 100 µM | > 100 | > 100 | – | > 100 µM | – | – | – | – | – | – | – | – | – | – | –
N=C(c1ccccc1)N(c1ccccc1)c1ccccc1 | > 100 µM | > 100 | – | > 100 | > 100 µM | > 100 | > 100 | – | – | – | – | – | – | – | – | – | – | – | – | –
Nc1nc(CCC(=O)Nc2cccc(C(F)(F)F)c2)cc(-c2cccc3ccccc23)n1 | > 100 µM | > 100 | > 100 | > 100 | > 100 µM | > 100 | > 100 | > 100 | > 100 µM | – | – | – | – | – | – | – | – | – | – | –
FC(F)(F)C1(Cl)C(c2ccccc2)=C1c1ccccc1 | 28.1 µM | 33.1 | 26.5 | 28.3 | 29.3 µM | 30.1 | 27.7 | 25.6 | – | – | – | – | – | – | – | – | – | – | – | –
C1OCC2S[C@@H]3COCO[C@@H]3C2O1 (some centres undefined) | > 100 µM | > 100 | > 100 | > 100 | > 100 µM | > 100 | > 100 | > 100 | > 100 µM | – | – | – | – | – | – | – | – | – | – | –
CC12CC3C(CC1SCC(=O)O2)C3(C)C (centres undefined) | > 100 µM | > 100 | > 100 | > 100 | > 100 µM | – | > 100 | > 100 | > 100 µM | – | – | – | – | – | – | – | – | – | – | –
COc1cc(/C(Cl)=C/C=C/C(=O)c2c(C)[n+]([O-])c3ccc(Cl)cc3[n+]2[O-])cc(OC)c1OC | 49.4 µM | – | – | – | 44.6 µM | – | – | – | > 50 µM | 6.47 µM | 39.4 µM | 0.673 µM | 1.74 µM | 6.94 µM | 17.8 µM | 6.85 µM | 9.36 µM | 15.7 µM | 10.7 µM | > 50 µM
C1=C(c2ccccc2)CN(c2ccccc2)OC1 | > 100 µM | > 100 | > 100 | > 100 | > 100 µM | > 100 | > 100 | – | – | – | – | – | – | – | – | – | – | – | – | –
O=C1OC(=O)c2c1c(-c1ccccc1)cn2-c1ccc(Cl)cc1 | > 100 µM | > 100 | > 100 | > 100 | > 100 µM | > 100 | > 100 | > 100 | – | – | – | – | – | – | – | – | – | – | – | –
C#CCC[C@@H]1O[C@@]1(C)CC/C=C(\C)CC/C=C/C=O | – | 77.3 | 58.2 | – | > 100 µM | > 100 | 48.1 | 35.1 | – | – | – | – | – | – | – | – | – | – | – | –
CC(C)[C@](O)(c1ccc2cc(OC(F)F)c(OC(F)F)cc2c1)c1cn[nH]n1 | 36.9 µM and 40.8 µM | – | – | – | 40.1 µM and 35.2 µM | – | – | – | 28.2 µM and 29.2 µM | 15.6 µM and 13.3 µM | 31.1 µM and 28.5 µM | 16 µM and 15.4 µM | 32.6 µM and 33 µM | 20.5 µM and 12.3 µM | 38.9 µM and 28.6 µM | 18.5 µM and 19.6 µM | 16.8 µM and 15.8 µM | 14.4 µM and 15.4 µM | 3.73 µM and 15.5 µM | 53.4 µM and 71.1 µM
COc1cc(CCc2cccnc2)cc(OC)c1OC | > 100 µM | > 100 | – | > 100 | > 100 µM | > 100 | > 100 | > 100 | > 100 µM | – | – | – | – | – | – | – | – | – | – | –
Cc1c2cnccc2c(C)c2c1c1cc(C3OCCCO3)ccc1n2C | 1.68 µM | – | – | – | 1.21 µM | – | – | – | 0.52 µM | 0.52 µM | 2.11 µM | 0.411 µM | 1.55 µM | 0.322 µM | 1.8 µM | 0.459 µM | 0.215 µM | 0.139 µM | 0.299 µM | 3.16 µM
CC(=O)C1=C(O)C=C2Oc3c(C(=O)/C=C/c4cc(C(F)(F)F)cc(C(F)(F)F)c4)c(O)c(C)c(O)c3[C@]2(C)C1=O | 2.96 µM | – | – | – | 2.87 µM | – | – | – | 1.42 µM | 0.492 µM | 1.8 µM | 0.587 µM | 2.35 µM | 0.525 µM | 1.84 µM | 0.747 µM | 0.528 µM | 0.457 µM | 0.385 µM | 1.37 µM
CC(C)(C)OC(=O)NCCNC1=CC(=O)c2nc3ccccc3c3ccnc1c23 | 28.9 µM | – | – | – | 46.8 µM | – | – | – | 29.2 µM | 20.5 µM | 51.7 µM | 15.7 µM | 37.7 µM | 18.4 µM | 58.6 µM | 13.3 µM | 17.1 µM | 0.101 µM | 25.8 µM | > 100 µM
C[n+]1c(/C=C\C=C\N2CCCCC2)sc2ccccc21 | 13.4 µM | – | – | – | 18.3 µM | – | – | – | 9.04 µM | 0.261 µM | 3.5 µM | 0.266 µM | 1.96 µM | 1.01 µM | 25.6 µM | 0.552 µM | 0.367 µM | 0.293 µM | 0.2 µM | 2.72 µM

Source: PubChem BioAssay (NCI)
